Values quoted from earlier work in US20120294924A1, “Peptide-Lipid Conjugates And Uses Thereof” (priority 2011, published 2012).
No end group written: not given here.

Conditions: qualitative statement, Li et al., Biochimica et Biophysica Acta 1768:411-418, 2007

In the case of “HAEHKVKIGVEQKYGQFPQGTEVTYTCSGNYFLM [Sushi-3, 34mer peptide from a Sushi domain of horseshoe crab Factor C]”, the “binding to LPS” value is listed as “bind to LPS”.
